From patent US6809065B2, “Herbicide containing substituted pyrazole derivative as active ingredient” (SDS Biotech K.K., priority 2001, dated 2004)

Key:
[1] = test system: wheat (Triticum aestivum); assay: Upland soil treatment (Test Example 2), crop; type: in vivo; conditions: soil surface treatment next day after sowing, 1 kg active ingredient per hectare, evaluated 21st day, lower index = higher safety
Outline: (§1)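 Scores were assigned 21 days after treatment on an index where higher means stronger weed control and, for crops, lower means greater safety. A wettable-powder formulation at 1 kg a.i./ha was applied to the soil surface one day after sowing seeds under about 1 cm of upland soil.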

soybean (Glycine max) [2] = assay: Upland soil treatment (Test Example 2), crop; type: in vivo; conditions: soil surface treatment next day after sowing, 1 kg active ingredient per hectare, evaluated 21st day, lower index = higher safety
Outline: as §1

Scirpus juncoides = assay: Paddy field treatment (Test Example 3); type: in vivo; conditions: paddy pot, submerged 4 cm, dropped on water surface 10th day after transplantation, 1 kg active ingredient per hectare, evaluated 21st day
Outline: (§2)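 Index scoring of herbicidal effect and rice safety 21 days after treatment. The wettable powder, dosed at 1 kg a.i./ha, was dripped onto flooded pots (4 cm water) 10 days after transplanting two-leaf Koshihikari rice. Weed seeds had been sown into the puddled soil.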

Ammannia multiflora = assay: Paddy field treatment (Test Example 3); type: in vivo; conditions: paddy pot, submerged 4 cm, dropped on water surface 10th day after transplantation, 1 kg active ingredient per hectare, evaluated 21st day
Outline: as §2

Monochoria vaginalis = assay: Paddy field treatment (Test Example 3); type: in vivo; conditions: paddy pot, submerged 4 cm, dropped on water surface 10th day after transplantation, 1 kg active ingredient per hectare, evaluated 21st day
Outline: as §2

Echinochloa spp. = assay: Paddy field treatment (Test Example 3); type: in vivo, Echinochloa crusgalli; conditions: paddy pot, submerged 4 cm, dropped on water surface 10th day after transplantation, 1 kg active ingredient per hectare, evaluated 21st day
Outline: as §2

Chenopodium album [3] = assay: Upland soil treatment (Test Example 2); type: in vivo; conditions: soil surface treatment next day after sowing, wettable powder, 1 kg active ingredient per hectare, evaluated 21st day after application
Outline: as §1

Setaria viridis [4] = assay: Upland soil treatment (Test Example 2); type: in vivo; conditions: soil surface treatment next day after sowing, wettable powder, 1 kg active ingredient per hectare, evaluated 21st day after application
Outline: as §1

Digitaria adscendens [5] = assay: Upland soil treatment (Test Example 2); type: in vivo; conditions: soil surface treatment next day after sowing, wettable powder, 1 kg active ingredient per hectare, evaluated 21st day after application
Outline: as §1

Stellaria media [6] = assay: Upland soil treatment (Test Example 2); type: in vivo; conditions: soil surface treatment next day after sowing, wettable powder, 1 kg active ingredient per hectare, evaluated 21st day after application
Outline: as §1

[7] = test system: wheat (Triticum aestivum); assay: Upland field foliage treatment (Test Example 1), crop; type: in vivo; conditions: foliage treatment 14th day after sowing, 1 kg active ingredient per hectare, evaluated 21st day, lower index = higher safety
Outline: (§3)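 Scored on an index 21 days after treatment: a high value on weeds means more herbicidal effect, and a low value on crops means more crop safety. Treatment was a foliar spray of water-diluted wettable powder at 1 kg a.i./ha, applied to plants 14 days after sowing in upland soil.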

soybean (Glycine max) [8] = assay: as above; type: in vivo; conditions: foliage treatment 14th day after sowing, 1 kg active ingredient per hectare, evaluated 21st day, lower index = higher safety
Outline: as §3

[9] = test system: rice (Oryza sative, variety: Koshihikari); assay: Paddy field treatment (Test Example 3), crop; type: in vivo, Oryza sativa; conditions: transplanted rice two-leaf period, water surface treatment 10th day after transplantation, 1 kg active ingredient per hectare, evaluated 21st day, lower index = higher safety
Outline: as §2

Chenopodium album [10] = assay: Upland field foliage treatment (Test Example 1); type: in vivo; conditions: foliage treatment 14th day after sowing, wettable powder, 1 kg active ingredient per hectare, evaluated 21st day after application
Outline: as §3

Setaria viridis [11] = assay: Upland field foliage treatment (Test Example 1); type: in vivo; conditions: foliage treatment 14th day after sowing, wettable powder, 1 kg active ingredient per hectare, evaluated 21st day after application
Outline: as §3

Digitaria adscendens [12] = assay: Upland field foliage treatment (Test Example 1); type: in vivo; conditions: foliage treatment 14th day after sowing, wettable powder, 1 kg active ingredient per hectare, evaluated 21st day after application
Outline: as §3

Stellaria media [13] = assay: Upland field foliage treatment (Test Example 1); type: in vivo; conditions: foliage treatment 14th day after sowing, wettable powder, 1 kg active ingredient per hectare, evaluated 21st day after application
Outline: as §3

COC=C(Cn1nc(-c2ccccc2)c(Br)c1SC)C(=O)OC [Compound 44]
Herbicidal activity Triticum aestivum [1]: 0 (herbicidal effect of not less than 0% by weight and less than 10% by weight) | Herbicidal activity Glycine max (soybean (Glycine max) [2]): 0 (herbicidal effect of not less than 0% by weight and less than 10% by weight) | Herbicidal activity Scirpus juncoides (Scirpus juncoides): 3 (herbicidal effect of not less than 50% by weight and less than 70% by weight) | Herbicidal activity Ammannia multiflora (Ammannia multiflora): 3 (herbicidal effect of not less than 50% by weight and less than 70% by weight) | Herbicidal activity Monochoria vaginalis (Monochoria vaginalis): 3 (herbicidal effect of not less than 50% by weight and less than 70% by weight) | Herbicidal activity Echinochloa spp. (Echinochloa spp.): 3 (herbicidal effect of not less than 50% by weight and less than 70% by weight) | Herbicidal activity Chenopodium album (Chenopodium album [3]): 4 (herbicidal effect of not less than 70% by weight and less than 90% by weight) | Herbicidal activity Setaria viridis (Setaria viridis [4]): 4 (herbicidal effect of not less than 70% by weight and less than 90% by weight) | Herbicidal activity Digitaria adscendens (Digitaria adscendens [5]): 4 (herbicidal effect of not less than 70% by weight and less than 90% by weight) | Herbicidal activity Stellaria media (Stellaria media [6]): 4 (herbicidal effect of not less than 70% by weight and less than 90% by weight) | Herbicidal activity Triticum aestivum [7]: 0 (herbicidal effect of not less than 0% by weight and less than 10% by weight) | Herbicidal activity Glycine max (soybean (Glycine max) [8]): 0 (herbicidal effect of not less than 0% by weight and less than 10% by weight) | Herbicidal activity Oryza sativa [9]: 0 (herbicidal effect of not less than 0% by weight and less than 10% by weight) | Herbicidal activity Chenopodium album (Chenopodium album [10]): 4 (herbicidal effect of not less than 70% by weight and less than 90% by weight) | Herbicidal activity Setaria viridis (Setaria viridis [11]): 4 (herbicidal effect of not less than 70% by weight and less than 90% by weight) | Herbicidal activity Digitaria adscendens (Digitaria adscendens [12]): 4 (herbicidal effect of not less than 70% by weight and less than 90% by weight) | Herbicidal activity Stellaria media (Stellaria media [13]): 4 (herbicidal effect of not less than 70% by weight and less than 90% by weight)

COC=C(Cn1nc(-c2ccccc2)c(C)c1Cl)C(=O)OC [Compound 45]
Herbicidal activity Triticum aestivum [1]: 0 (herbicidal effect of not less than 0% by weight and less than 10% by weight) | Herbicidal activity Glycine max (soybean (Glycine max) [2]): 0 (herbicidal effect of not less than 0% by weight and less than 10% by weight) | Herbicidal activity Scirpus juncoides (Scirpus juncoides): 4 (herbicidal effect of not less than 70% by weight and less than 90% by weight) | Herbicidal activity Ammannia multiflora (Ammannia multiflora): 4 (herbicidal effect of not less than 70% by weight and less than 90% by weight) | Herbicidal activity Monochoria vaginalis (Monochoria vaginalis): 5 (herbicidal effect of not less than 90% by weight) | Herbicidal activity Echinochloa spp. (Echinochloa spp.): 4 (herbicidal effect of not less than 70% by weight and less than 90% by weight) | Herbicidal activity Chenopodium album (Chenopodium album [3]): 4 (herbicidal effect of not less than 70% by weight and less than 90% by weight) | Herbicidal activity Setaria viridis (Setaria viridis [4]): 4 (herbicidal effect of not less than 70% by weight and less than 90% by weight) | Herbicidal activity Digitaria adscendens (Digitaria adscendens [5]): 4 (herbicidal effect of not less than 70% by weight and less than 90% by weight) | Herbicidal activity Stellaria media (Stellaria media [6]): 4 (herbicidal effect of not less than 70% by weight and less than 90% by weight) | Herbicidal activity Triticum aestivum [7]: 0 (herbicidal effect of not less than 0% by weight and less than 10% by weight) | Herbicidal activity Glycine max (soybean (Glycine max) [8]): 1 (herbicidal effect of not less than 10% by weight and less than 30% by weight) | Herbicidal activity Oryza sativa [9]: 0 (herbicidal effect of not less than 0% by weight and less than 10% by weight) | Herbicidal activity Chenopodium album (Chenopodium album [10]): 5 (herbicidal effect of not less than 90% by weight) | Herbicidal activity Setaria viridis (Setaria viridis [11]): 4 (herbicidal effect of not less than 70% by weight and less than 90% by weight) | Herbicidal activity Digitaria adscendens (Digitaria adscendens [12]): 4 (herbicidal effect of not less than 70% by weight and less than 90% by weight) | Herbicidal activity Stellaria media (Stellaria media [13]): 5 (herbicidal effect of not less than 90% by weight)

COC=C(Cn1nc(-c2ccccc2)c(C)c1Br)C(=O)OC [Compound 46]
Herbicidal activity Triticum aestivum [1]: 0 (herbicidal effect of not less than 0% by weight and less than 10% by weight) | Herbicidal activity Glycine max (soybean (Glycine max) [2]): 0 (herbicidal effect of not less than 0% by weight and less than 10% by weight) | Herbicidal activity Scirpus juncoides (Scirpus juncoides): 3 (herbicidal effect of not less than 50% by weight and less than 70% by weight) | Herbicidal activity Ammannia multiflora (Ammannia multiflora): 3 (herbicidal effect of not less than 50% by weight and less than 70% by weight) | Herbicidal activity Monochoria vaginalis (Monochoria vaginalis): 3 (herbicidal effect of not less than 50% by weight and less than 70% by weight) | Herbicidal activity Echinochloa spp. (Echinochloa spp.): 3 (herbicidal effect of not less than 50% by weight and less than 70% by weight) | Herbicidal activity Chenopodium album (Chenopodium album [3]): 4 (herbicidal effect of not less than 70% by weight and less than 90% by weight) | Herbicidal activity Setaria viridis (Setaria viridis [4]): 4 (herbicidal effect of not less than 70% by weight and less than 90% by weight) | Herbicidal activity Digitaria adscendens (Digitaria adscendens [5]): 4 (herbicidal effect of not less than 70% by weight and less than 90% by weight) | Herbicidal activity Stellaria media (Stellaria media [6]): 4 (herbicidal effect of not less than 70% by weight and less than 90% by weight) | Herbicidal activity Triticum aestivum [7]: 0 (herbicidal effect of not less than 0% by weight and less than 10% by weight) | Herbicidal activity Glycine max (soybean (Glycine max) [8]): 1 (herbicidal effect of not less than 10% by weight and less than 30% by weight) | Herbicidal activity Oryza sativa [9]: 0 (herbicidal effect of not less than 0% by weight and less than 10% by weight) | Herbicidal activity Chenopodium album (Chenopodium album [10]): 5 (herbicidal effect of not less than 90% by weight) | Herbicidal activity Setaria viridis (Setaria viridis [11]): 4 (herbicidal effect of not less than 70% by weight and less than 90% by weight) | Herbicidal activity Digitaria adscendens (Digitaria adscendens [12]): 4 (herbicidal effect of not less than 70% by weight and less than 90% by weight) | Herbicidal activity Stellaria media (Stellaria media [13]): 5 (herbicidal effect of not less than 90% by weight)

COC=C(CCn1cc(C)c(-c2ccccc2)n1)C(=O)OC [Compound 47]
Herbicidal activity Triticum aestivum [1]: 0 (herbicidal effect of not less than 0% by weight and less than 10% by weight) | Herbicidal activity Glycine max (soybean (Glycine max) [2]): 0 (herbicidal effect of not less than 0% by weight and less than 10% by weight) | Herbicidal activity Scirpus juncoides (Scirpus juncoides): 3 (herbicidal effect of not less than 50% by weight and less than 70% by weight) | Herbicidal activity Ammannia multiflora (Ammannia multiflora): 2 (herbicidal effect of not less than 30% by weight and less than 50% by weight) | Herbicidal activity Monochoria vaginalis (Monochoria vaginalis): 2 (herbicidal effect of not less than 30% by weight and less than 50% by weight) | Herbicidal activity Echinochloa spp. (Echinochloa spp.): 3 (herbicidal effect of not less than 50% by weight and less than 70% by weight) | Herbicidal activity Chenopodium album (Chenopodium album [3]): 4 (herbicidal effect of not less than 70% by weight and less than 90% by weight) | Herbicidal activity Setaria viridis (Setaria viridis [4]): 4 (herbicidal effect of not less than 70% by weight and less than 90% by weight) | Herbicidal activity Digitaria adscendens (Digitaria adscendens [5]): 4 (herbicidal effect of not less than 70% by weight and less than 90% by weight) | Herbicidal activity Stellaria media (Stellaria media [6]): 3 (herbicidal effect of not less than 50% by weight and less than 70% by weight) | Herbicidal activity Triticum aestivum [7]: 0 (herbicidal effect of not less than 0% by weight and less than 10% by weight) | Herbicidal activity Glycine max (soybean (Glycine max) [8]): 0 (herbicidal effect of not less than 0% by weight and less than 10% by weight) | Herbicidal activity Oryza sativa [9]: 0 (herbicidal effect of not less than 0% by weight and less than 10% by weight) | Herbicidal activity Chenopodium album (Chenopodium album [10]): 4 (herbicidal effect of not less than 70% by weight and less than 90% by weight) | Herbicidal activity Setaria viridis (Setaria viridis [11]): 3 (herbicidal effect of not less than 50% by weight and less than 70% by weight) | Herbicidal activity Digitaria adscendens (Digitaria adscendens [12]): 3 (herbicidal effect of not less than 50% by weight and less than 70% by weight) | Herbicidal activity Stellaria media (Stellaria media [13]): 4 (herbicidal effect of not less than 70% by weight and less than 90% by weight)
